Here are results for 21 compounds from patent US9796711B2, “Substituted pyrazolo[3,4-b]pyridin-6-carboxylic acids and method of use” (AbbVie S.àr.l., priority 2015, dated 2017).

For experiment [1], the target named is T1, ΔF508-CFTR (Homo sapiens, UniProt P13569, DEL508-508).
T1 construct: host or cells: CFBE41o-, doxycycline-inducible
Kind of experiment: CFTR cell surface levels using HRP-tagged ΔF508-CFTR expressing CFBE cells, in the presence of a co-corrector. To be noted: HRP-tagged ΔF508-CFTR expressing CFBE cells, in the presence of 3 μM co-corrector; for pEC50: read-out: EC50. It is filed as cell-based. A digest of the protocol:
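Cells were seeded with 0.5 μg/mL doxycycline and held 68 h at 37 °C. Test compounds plus 3 μM co-corrector (final 0.1% DMSO) were then added for 20 h at 33 °C. Washed cells received HRP substrate, and luminescence was normalized between DMSO and 3 μM co-corrector controls.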

Experiment [2] deals with T1, ΔF508-CFTR. Kind of experiment: CFTR cell surface levels using HRP-tagged ΔF508-CFTR expressing CFBE cells, intrinsic corrector capacity. It is filed as cell-based. To be noted: for pEC50: read-out: EC50. A digest of the protocol:
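Here the cells express ΔF508-CFTR with horseradish peroxidase inserted in extracellular loop 4, so only rescued channel at the surface gives luminescent signal. Compounds act on their own, 20 h at the reduced temperature of 33 °C; values are percent activity relative to DMSO and a 3 μM corrector.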

[3] abbreviates: HRP-tagged ΔF508-CFTR expressing CFBE cells, intrinsic corrector capacity (no co-corrector), 33° C., 20 hours.
Where [4] appears, read: HRP-tagged ΔF508-CFTR CFBE41o- cells, compounds alone (intrinsic corrector capacity), 20 hours at 33° C., positive control 3 μM corrector.
Setting [5] is: HRP-tagged ΔF508-CFTR CFBE41o- cells, compounds alone (intrinsic corrector capacity), 20 hours at 33° C.

Structures are written as SMILES. pEC50: −log10 of the molar value.

T1 sequence (P13569 with tags, fused parts or gaps DEL508-508): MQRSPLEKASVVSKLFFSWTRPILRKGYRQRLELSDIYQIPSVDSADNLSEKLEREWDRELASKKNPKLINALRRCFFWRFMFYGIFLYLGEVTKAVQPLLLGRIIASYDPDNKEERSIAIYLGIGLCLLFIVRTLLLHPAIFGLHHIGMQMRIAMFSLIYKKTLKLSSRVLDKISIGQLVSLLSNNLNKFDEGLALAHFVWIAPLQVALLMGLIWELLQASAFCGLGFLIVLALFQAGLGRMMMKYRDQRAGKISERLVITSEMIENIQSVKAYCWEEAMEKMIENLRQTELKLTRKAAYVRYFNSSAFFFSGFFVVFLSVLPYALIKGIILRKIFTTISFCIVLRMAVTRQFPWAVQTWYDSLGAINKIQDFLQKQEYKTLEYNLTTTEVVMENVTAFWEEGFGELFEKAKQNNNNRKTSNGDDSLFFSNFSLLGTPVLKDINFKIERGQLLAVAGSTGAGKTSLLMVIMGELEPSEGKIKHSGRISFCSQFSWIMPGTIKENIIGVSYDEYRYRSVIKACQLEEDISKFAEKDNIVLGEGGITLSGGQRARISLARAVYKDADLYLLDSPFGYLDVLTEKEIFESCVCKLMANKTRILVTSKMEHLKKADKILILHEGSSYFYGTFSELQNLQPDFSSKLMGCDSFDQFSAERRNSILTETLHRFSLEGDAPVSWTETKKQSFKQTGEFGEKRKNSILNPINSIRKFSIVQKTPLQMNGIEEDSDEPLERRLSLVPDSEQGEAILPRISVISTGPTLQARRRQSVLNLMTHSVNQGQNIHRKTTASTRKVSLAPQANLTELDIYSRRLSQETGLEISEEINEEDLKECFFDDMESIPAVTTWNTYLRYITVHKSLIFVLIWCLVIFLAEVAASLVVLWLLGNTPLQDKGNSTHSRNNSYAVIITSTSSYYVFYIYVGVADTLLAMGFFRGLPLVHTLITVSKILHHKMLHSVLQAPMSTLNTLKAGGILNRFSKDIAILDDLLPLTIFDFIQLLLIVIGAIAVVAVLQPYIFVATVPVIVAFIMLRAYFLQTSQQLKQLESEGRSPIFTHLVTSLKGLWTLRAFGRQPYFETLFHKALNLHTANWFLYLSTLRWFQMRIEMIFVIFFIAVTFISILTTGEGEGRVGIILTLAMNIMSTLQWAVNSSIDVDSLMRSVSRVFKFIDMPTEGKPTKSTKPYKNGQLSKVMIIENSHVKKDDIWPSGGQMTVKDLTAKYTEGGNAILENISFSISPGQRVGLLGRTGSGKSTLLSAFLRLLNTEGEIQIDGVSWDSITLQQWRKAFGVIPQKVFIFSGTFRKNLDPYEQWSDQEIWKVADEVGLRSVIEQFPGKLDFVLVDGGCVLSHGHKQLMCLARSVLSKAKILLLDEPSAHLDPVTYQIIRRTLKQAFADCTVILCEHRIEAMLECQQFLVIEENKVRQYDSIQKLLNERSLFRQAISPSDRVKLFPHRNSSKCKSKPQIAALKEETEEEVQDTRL

The pEC50 is the negative decadic logarithm of the EC50, by convention in mol/L. In the case of `CC1(COc2cc(C(=O)O)nc3c2c(C2CCC2)nn3-c2ccccc2)COC1` [compound 490, 3-cyclobutyl-4-[(3-methyloxetan-3-yl)methoxy]-1-phenyl-1H-pyrazolo[3,4-b]pyridine-6-carboxylic acid], at ΔF508-CFTR [1], the “% Activation” value was 311.1% and the pEC50 was 6.53. Moreover, at ΔF508-CFTR [2] (setting [3]), the “% Activation” value is given as 144.95% and the pEC50 is 6.40.

Turning to `COCC1(C)CN(c2cc(C(=O)O)nc3c2c(C)nn3-c2ccccc2)C1` [compound 289, 4-[3-(methoxymethyl)-3-methylazetidin-1-yl]-3-methyl-1-phenyl-1H-pyrazolo[3,4-b]pyridine-6-carboxylic acid], the “% Activation” value was 172.8% at ΔF508-CFTR [1] and 46.35% on ΔF508-CFTR [2] (setting [4]). Also, the pEC50 is 5.74 on ΔF508-CFTR [1] and 5.60 on ΔF508-CFTR [2] (setting [5]).

With `CN1CCCN(CCOc2cc(C(=O)O)nc3c2c(C2CCC2)nn3-c2ccccc2)CC1` [compound 644, 3-cyclobutyl-4-[2-(4-methyl-1,4-diazepan-1-yl)ethoxy]-1-phenyl-1H-pyrazolo[3,4-b]pyridine-6-carboxylic acid], at ΔF508-CFTR [1], the “% Activation” value came to 196.3% and the negative-log EC50 (pEC50) is 5.48. Moreover, at ΔF508-CFTR [2] (setting [3]), the “% Activation” value was 42.75% and the pEC50 was 5.48.

Turning to `COCC1CCN(c2cc(C(=O)O)nc3c2c(C(C)C)nn3C2CCCCC2)CC1` [compound 431, 1-cyclohexyl-4-[4-(methoxymethyl)piperidin-1-yl]-3-(propan-2-yl)-1H-pyrazolo[3,4-b]pyridine-6-carboxylic acid], the “% Activation” value came out at 416.6% at ΔF508-CFTR [1] and 198.57% at ΔF508-CFTR [2] (setting [3]). For the same compound, the pEC50 was 6.37 on ΔF508-CFTR [1] and 6.27 at ΔF508-CFTR [2] (setting [3]).

In the case of `CC(C)N1CCC(Oc2cc(C(=O)O)nc3c2c(C2CCC2)nn3-c2ccccc2)CC1` [compound 647, 3-cyclobutyl-1-phenyl-4-{[1-(propan-2-yl)piperidin-4-yl]oxy}-1H-pyrazolo[3,4-b]pyridine-6-carboxylic acid], at ΔF508-CFTR [1], the “% Activation” value was found to be 301.3% and the pEC50 is 5.70. On ΔF508-CFTR [2] (setting [3]), the “% Activation” value came out at 119.9% and the pEC50 was 5.66.

`CC1(CCOc2cc(C(=O)O)nc3c2c(C2CCC2)nn3-c2ccccc2)CC1` [compound 631, 3-cyclobutyl-4-[2-(1-methylcyclopropyl)ethoxy]-1-phenyl-1H-pyrazolo[3,4-b]pyridine-6-carboxylic acid]: at ΔF508-CFTR [1], the “% Activation” value is given as 283% and the pEC50 was 6.75. Also, on ΔF508-CFTR [2] (setting [3]), the “% Activation” value is on record as 99.143% and the pEC50 is 6.46.

`CC(C)c1nn(C2CCCCC2)c2nc(C(=O)O)cc(-c3cnc(N(C)C4CCOCC4)nc3)c12` [compound 236, 1-cyclohexyl-4-{2-[methyl(oxan-4-yl)amino]pyrimidin-5-yl}-3-(propan-2-yl)-1H-pyrazolo[3,4-b]pyridine-6-carboxylic acid]: the “% Activation” value on ΔF508-CFTR [1] stood at 423.62%; on ΔF508-CFTR [2] (setting [4]), 213.68%. The pEC50 on ΔF508-CFTR [1] is 6.20; on ΔF508-CFTR [2] (setting [5]), 6.18.

For `O=C(O)c1cc(CN2CCOCC2)c2c(C3CCC3)nn(-c3ccc(F)cc3)c2n1` [compound 857, 3-cyclobutyl-1-(4-fluorophenyl)-4-[(morpholin-4-yl)methyl]-1H-pyrazolo[3,4-b]pyridine-6-carboxylic acid], the “% Activation” value came to 232.2% on ΔF508-CFTR [1] and 60.01% at ΔF508-CFTR [2] (setting [3]). Further, the pEC50 at ΔF508-CFTR [1] was 5.61; on ΔF508-CFTR [2] (setting [3]), 5.48.

As to `Cc1nn(-c2ccccc2)c2nc(C(=O)O)cc(-c3ccc(N4CCC(F)(F)C4)cc3)c12` [compound 111, 4-[4-(3,3-difluoropyrrolidin-1-yl)phenyl]-3-methyl-1-phenyl-1H-pyrazolo[3,4-b]pyridine-6-carboxylic acid], the “% Activation” value at ΔF508-CFTR [1] stood at 299.8%; on ΔF508-CFTR [2] (setting [4]), 110.34%. The values for the pEC50 on ΔF508-CFTR [1] and on ΔF508-CFTR [2] (setting [5]) were 6.37 and 6.34, respectively.

Turning to `Cc1nn(-c2ccccc2)c2nc(C(=O)O)cc(OCC(F)C3CCOCC3)c12` (stereo not drawn) [compound 377, 4-[2-fluoro-2-(oxan-4-yl)ethoxy]-3-methyl-1-phenyl-1H-pyrazolo[3,4-b]pyridine-6-carboxylic acid], the “% Activation” value at ΔF508-CFTR [1] worked out at 295.65%; at ΔF508-CFTR [2] (setting [4]) it was 95.185%. In addition, the values for the negative logarithm of the EC50 (pEC50) on ΔF508-CFTR [1] and on ΔF508-CFTR [2] (setting [5]) were 5.82 and 5.78, respectively.

Regarding `CC(C)c1nn(C2CCCCC2)c2nc(C(=O)O)cc(-c3cnn(C(C)C)c3)c12` [compound 361, 1-cyclohexyl-3-(propan-2-yl)-4-[1-(propan-2-yl)-1H-pyrazol-4-yl]-1H-pyrazolo[3,4-b]pyridine-6-carboxylic acid], the “% Activation” value at ΔF508-CFTR [1] is reported as 227.65%; on ΔF508-CFTR [2] (setting [4]), 80.015%. Also, the pEC50 is 5.94 on ΔF508-CFTR [1] and 5.81 at ΔF508-CFTR [2] (setting [5]).

With `COCCN(C)c1ccc(-c2cc(C(=O)O)nc3c2c(C(C)C)nn3-c2cccc(N3CCOCC3)c2)cn1` [compound 179], the “% Activation” value was 548% at ΔF508-CFTR [1] and 329.25% on ΔF508-CFTR [2] (setting [4]). In addition, the pEC50 at ΔF508-CFTR [1] was 6.01; on ΔF508-CFTR [2] (setting [5]) it was 5.55.

In the case of `CC(C)c1nn(-c2ccnc(N3CCCC3)c2)c2nc(C(=O)O)cc(-c3ccc(N4CCC(C#N)CC4)cc3)c12` [compound 392, 4-[4-(4-cyanopiperidin-1-yl)phenyl]-3-(propan-2-yl)-1-[2-(pyrrolidin-1-yl)pyridin-4-yl]-1H-pyrazolo[3,4-b]pyridine-6-carboxylic acid], the “% Activation” value is given as 519.35% at ΔF508-CFTR [1] and 302% on ΔF508-CFTR [2] (setting [4]). Moreover, the pEC50 is 6.49 at ΔF508-CFTR [1] and 6.46 on ΔF508-CFTR [2] (setting [5]).

Turning to `CC(C)c1nn(-c2ccc(F)cc2F)c2nc(C(=O)O)cc(-c3ccc(N4CCC(C#N)CC4)cc3)c12` [compound 327, 4-[4-(4-cyanopiperidin-1-yl)phenyl]-1-(2,4-difluorophenyl)-3-(propan-2-yl)-1H-pyrazolo[3,4-b]pyridine-6-carboxylic acid], the “% Activation” value at ΔF508-CFTR [1] was determined as 335.63%; on ΔF508-CFTR [2] (setting [4]), 176%. For the same compound, the pEC50 was 6.62 on ΔF508-CFTR [1] and 6.43 at ΔF508-CFTR [2] (setting [5]).

Turning to `O=C(O)c1cc(OCCN(C2CCCCC2)C2COC2)c2c(C3CCC3)nn(-c3ccccc3)c2n1` [compound 625, 3-cyclobutyl-4-{2-[cyclohexyl(oxetan-3-yl)amino]ethoxy}-1-phenyl-1H-pyrazolo[3,4-b]pyridine-6-carboxylic acid], at ΔF508-CFTR [1], the “% Activation” value is given as 326.75% and the pEC50 is 6.90. In addition, at ΔF508-CFTR [2] (setting [3]), the “% Activation” value worked out at 135.2% and the pEC50 is 6.52.

For the compound `O=C(O)c1cc(N2CC[C@@H](O)[C@H](F)C2)c2c(C3CCC3)nn(-c3ccccc3)c2n1` [compound 464, 3-cyclobutyl-4-[(3R,4R)-3-fluoro-4-hydroxypiperidin-1-yl]-1-phenyl-1H-pyrazolo[3,4-b]pyridine-6-carboxylic acid], at ΔF508-CFTR [1], the “% Activation” value is recorded as 328.25% and the pEC50 is 6.39. Besides, on ΔF508-CFTR [2] (setting [3]), the “% Activation” value was 163.6% and the pEC50 was 5.94.

With `Cc1nn(-c2ccn(C)c(=O)c2)c2nc(C(=O)O)cc(-c3ccc(N4CCOCC4)cc3)c12` [compound 94, 3-methyl-1-(1-methyl-2-oxo-1,2-dihydropyridin-4-yl)-4-[4-(morpholin-4-yl)phenyl]-1H-pyrazolo[3,4-b]pyridine-6-carboxylic acid], the “% Activation” value came out at 119.4% on ΔF508-CFTR [1] and 3.061% on ΔF508-CFTR [2] (setting [4]). Also, the pEC50 at ΔF508-CFTR [1] and at ΔF508-CFTR [2] (setting [5]) was under 5.00 throughout.

In the case of `CC(C)N(CCOc1cc(C(=O)O)nc2c1c(C1CCC1)nn2-c1ccccc1)C1COC1` [compound 478, 3-cyclobutyl-4-{2-[(oxetan-3-yl)(propan-2-yl)amino]ethoxy}-1-phenyl-1H-pyrazolo[3,4-b]pyridine-6-carboxylic acid], the “% Activation” value at ΔF508-CFTR [1] is 292%; at ΔF508-CFTR [2] (setting [3]) it was 125.2%. For the same compound, the pEC50 at ΔF508-CFTR [1] was 6.39; on ΔF508-CFTR [2] (setting [3]), 6.08.

Regarding `Cc1nn(C2CCCCC2)c2nc(C(=O)O)cc(-c3cnc(N4CCOCC4)nc3)c12` [compound 65, 1-cyclohexyl-3-methyl-4-[2-(morpholin-4-yl)pyrimidin-5-yl]-1H-pyrazolo[3,4-b]pyridine-6-carboxylic acid], the “% Activation” value at ΔF508-CFTR [1] amounted to 258.2%; at ΔF508-CFTR [2] (setting [4]), 103.02%. Further, the pEC50 on ΔF508-CFTR [1] is 5.64; on ΔF508-CFTR [2] (setting [5]) it was 5.48.

`CC(C)COC1CCN(c2cc(C(=O)O)nc3c2c(C(C)C)nn3-c2ccc(F)cc2)CC1` [compound 396, 1-(4-fluorophenyl)-4-[4-(2-methylpropoxy)piperidin-1-yl]-3-(propan-2-yl)-1H-pyrazolo[3,4-b]pyridine-6-carboxylic acid]: on ΔF508-CFTR [1], the “% Activation” value was 409.8% and the negative-log EC50 (pEC50) is 6.52. Besides, at ΔF508-CFTR [2] (setting [3]), the “% Activation” value stood at 209.3% and the pEC50 is 6.39.

For the compound `CC(C)c1nn(C2CCCCC2)c2nc(C(=O)O)cc(-c3ccc(N4CCCC(F)C4)nc3)c12` (stereo not drawn) [compound 223, 1-cyclohexyl-4-[6-(3-fluoropiperidin-1-yl)pyridin-3-yl]-3-(propan-2-yl)-1H-pyrazolo[3,4-b]pyridine-6-carboxylic acid], the “% Activation” value turned out to be 484.45% on ΔF508-CFTR [1] and 246.95% on ΔF508-CFTR [2] (setting [4]). The pEC50 at ΔF508-CFTR [1] was 6.16; on ΔF508-CFTR [2] (setting [5]), 6.15.
